# Reference: ChEMBL document CHEMBL1201862, “PubChem BioAssay data set” (2004)
#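 Compound exposure: 48 hours, 5 concentrations, 96-well plates. GI50: concentration for 50% inhibition of growth.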 Active and inactive are the calls of the source. No stated cut-off is given here; in the data, active = GI50 up to about 1.1 µM and inactive = higher.
# Experiments:
# Test in all cases: DTP human tumour cell line panel, 48 h
# 786-0 = system: 786-0
# A549 = system: A549
# ACHN = system: ACHN
# CAKI-1 = system: CAKI-1
# CCRF-CEM = system: CCRF-CEM
# COLO 205 = system: COLO 205
# DLD-1 = system: DLD-1
# DMS-114 = system: DMS-114
# DMS-273 = system: DMS-273
# EKVX = system: EKVX
# HCC 2998 = system: HCC 2998
# HCT-116 = system: HCT-116
# HCT-15 = system: HCT-15
# HL-60 = system: HL-60
# HOP-18 = system: HOP-18
# HOP-62 = system: HOP-62
# HOP-92 = system: HOP-92
# HT-29 = system: HT-29
# IGROV-1 = system: IGROV-1
# K562 = system: K562
# KM-20L2 = system: KM-20L2
# KM12 = system: KM12
# LOX IMVI = system: LOX IMVI
# LXFL 529 = system: LXFL 529
# M14 = system: M14
# M19-MEL = system: M19-MEL
# MOLT-4 = system: MOLT-4
# Malme-3M = system: Malme-3M
# NCI-H226 = system: NCI-H226
# NCI-H23 = system: NCI-H23
# NCI-H460 = system: NCI-H460
# OVCAR-3 = system: OVCAR-3
# OVCAR-4 = system: OVCAR-4
# OVCAR-5 = system: OVCAR-5
# OVCAR-8 = system: OVCAR-8
# RPMI-8226 = system: RPMI-8226
# RXF 393 = system: RXF 393
# RXF 631 = system: RXF 631
# SF-268 = system: SF-268
# SF-295 = system: SF-295
# SF-539 = system: SF-539
# SK-MEL-28 = system: SK-MEL-28
# SK-MEL-2 = system: SK-MEL-2
# SK-MEL-5 = system: SK-MEL-5
# SK-OV-3 = system: SK-OV-3
# SN12C = system: SN12C
# SNB-19 = system: SNB-19
# SNB-75 = system: SNB-75
# SNB-78 = system: SNB-78
# SR = system: SR
# SW-620 = system: SW-620
# TK-10 = system: TK-10
# U-251 = system: U-251
# UACC-257 = system: UACC-257
# UACC-62 = system: UACC-62
# UO-31 = system: UO-31
# XF498 = system: XF498
# A498 = system: A498
# NCI-H522 = system: NCI-H522
smiles,measurement,setting,value
Cc1cc(C)c([O-])c(-[n+]2c(-c3ccccc3)cc(-c3ccccc3)cc2-c2ccccc2)c1,GI50,786-0,6.78 µM (inactive)
same,GI50,A549,12.6 µM (inactive)
same,GI50,ACHN,5.13 µM (inactive)
same,GI50,CAKI-1,9.27 µM (inactive)
same,GI50,CCRF-CEM,1.73 µM (inactive)
same,GI50,COLO 205,3.22 µM (inactive)
same,GI50,DLD-1,5.19 µM (inactive)
same,GI50,DMS-114,3.05 µM (inactive)
same,GI50,DMS-273,3.24 µM (inactive)
same,GI50,EKVX,8.07 µM (inactive)
same,GI50,HCC 2998,3.51 µM (inactive)
same,GI50,HCT-116,1.63 µM (inactive)
same,GI50,HCT-15,11.9 µM
same,GI50,HL-60,1.62 µM (inactive)
same,GI50,HOP-18,5.31 µM (inactive)
same,GI50,HOP-62,10.1 µM (inactive)
same,GI50,HOP-92,1.73 µM (inactive)
same,GI50,HT-29,2.98 µM (inactive)
same,GI50,IGROV-1,4.04 µM (inactive)
same,GI50,K562,3.21 µM (inactive)
same,GI50,KM-20L2,2.65 µM (inactive)
same,GI50,KM12,3.21 µM (inactive)
same,GI50,LOX IMVI,1.72 µM (inactive)
same,GI50,LXFL 529,2.35 µM (inactive)
same,GI50,M14,5.57 µM (inactive)
same,GI50,M19-MEL,3.88 µM (inactive)
same,GI50,MOLT-4,2.67 µM (inactive)
same,GI50,Malme-3M,4.28 µM (inactive)
same,GI50,NCI-H226,10.1 µM (inactive)
same,GI50,NCI-H23,3.53 µM (inactive)
same,GI50,NCI-H460,4.48 µM (inactive)
same,GI50,OVCAR-3,3.67 µM (inactive)
same,GI50,OVCAR-4,4.28 µM (inactive)
same,GI50,OVCAR-5,4.49 µM (inactive)
same,GI50,OVCAR-8,4.33 µM (inactive)
same,GI50,RPMI-8226,2.79 µM (inactive)
same,GI50,RXF 393,6.73 µM (inactive)
same,GI50,RXF 631,10.2 µM (inactive)
same,GI50,SF-268,7.82 µM (inactive)
same,GI50,SF-295,4.98 µM (inactive)
same,GI50,SF-539,11.2 µM (inactive)
same,GI50,SK-MEL-28,4.81 µM (inactive)
same,GI50,SK-MEL-2,2.88 µM (inactive)
same,GI50,SK-MEL-5,1.94 µM (inactive)
same,GI50,SK-OV-3,13.7 µM (inactive)
same,GI50,SN12C,5.09 µM (inactive)
same,GI50,SNB-19,8.89 µM (inactive)
same,GI50,SNB-75,6.18 µM (inactive)
same,GI50,SNB-78,6.24 µM (inactive)
same,GI50,SR,2.6 µM (inactive)
same,GI50,SW-620,4.1 µM (inactive)
same,GI50,TK-10,6.22 µM (inactive)
same,GI50,U-251,3.38 µM (inactive)
same,GI50,UACC-257,2.94 µM (inactive)
same,GI50,UACC-62,3.34 µM (inactive)
same,GI50,UO-31,18.9 µM (inactive)
same,GI50,XF498,2.15 µM (inactive)
O=c1nc(NC2CCCCO2)ccn1CCO (configuration not stated),GI50,786-0,> 100 µM (inactive)
same,GI50,A498,> 100 µM (inactive)
same,GI50,A549,> 100 µM (inactive)
same,GI50,ACHN,> 100 µM (inactive)
same,GI50,CAKI-1,> 100 µM (inactive)
same,GI50,CCRF-CEM,> 100 µM (inactive)
same,GI50,COLO 205,> 100 µM (inactive)
same,GI50,DLD-1,> 100 µM (inactive)
same,GI50,DMS-114,> 100 µM (inactive)
same,GI50,DMS-273,> 100 µM (inactive)
same,GI50,EKVX,> 100 µM (inactive)
same,GI50,HCT-116,> 100 µM (inactive)
same,GI50,HCT-15,> 100 µM
same,GI50,HL-60,> 100 µM (inactive)
same,GI50,HOP-18,> 100 µM (inactive)
same,GI50,HOP-62,> 100 µM (inactive)
same,GI50,HOP-92,> 100 µM (inactive)
same,GI50,HT-29,> 100 µM (inactive)
same,GI50,IGROV-1,> 100 µM (inactive)
same,GI50,K562,> 100 µM (inactive)
same,GI50,KM-20L2,> 100 µM (inactive)
same,GI50,KM12,> 100 µM (inactive)
same,GI50,LOX IMVI,> 100 µM (inactive)
same,GI50,LXFL 529,> 100 µM (inactive)
same,GI50,M14,> 100 µM (inactive)
same,GI50,M19-MEL,> 100 µM (inactive)
same,GI50,Malme-3M,> 100 µM (inactive)
same,GI50,NCI-H226,> 100 µM (inactive)
same,GI50,NCI-H460,> 100 µM (inactive)
same,GI50,NCI-H522,> 100 µM (inactive)
same,GI50,OVCAR-3,> 100 µM (inactive)
same,GI50,OVCAR-4,> 100 µM (inactive)
same,GI50,OVCAR-5,> 100 µM (inactive)
same,GI50,OVCAR-8,> 100 µM (inactive)
same,GI50,RPMI-8226,> 100 µM (inactive)
same,GI50,RXF 393,> 100 µM (inactive)
same,GI50,RXF 631,> 100 µM (inactive)
same,GI50,SF-268,> 100 µM (inactive)
same,GI50,SF-295,> 100 µM (inactive)
same,GI50,SF-539,> 100 µM (inactive)
same,GI50,SK-MEL-28,> 100 µM (inactive)
same,GI50,SK-MEL-2,> 100 µM (inactive)
same,GI50,SK-MEL-5,> 100 µM (inactive)
same,GI50,SK-OV-3,> 100 µM (inactive)
same,GI50,SN12C,> 100 µM (inactive)
same,GI50,SNB-75,> 100 µM (inactive)
same,GI50,SNB-78,> 100 µM (inactive)
same,GI50,SR,> 100 µM (inactive)
same,GI50,SW-620,> 100 µM (inactive)
same,GI50,TK-10,> 100 µM (inactive)
same,GI50,U-251,> 100 µM (inactive)
same,GI50,UACC-257,> 100 µM (inactive)
same,GI50,UACC-62,> 100 µM (inactive)
same,GI50,UO-31,> 100 µM (inactive)
same,GI50,XF498,51.4 µM (inactive)
